The source made the active and inactive calls. No cut-off for these calls is given here.
What was measured:
[1] = Cytotoxicity against NHDF cells assessed as reduction in cell viability measured after 96 hrs by MTS assay; format: cell-based; details: human
[2] = system: Toxoplasma gondii; test: Anti-bradyzoite activity against Toxoplasma gondii ESG reporter stain infected in NHDF cells assessed as parasitic infection at 1.25 uM measured after 60 days by optical microscopic analysis; format: functional, organism-based; details: time 60.0 day
[3] = system: Toxoplasma gondii; test: Anti-tachyzoite activity against RFP-expressing Toxoplasma gondii RH Type 1 infected in NHDF cells assessed as inhibition of parasite proliferation measured after 72 hrs by fluorescence plate reader; format: functional; details: RH Type 1, NHDF, read-out: ED50 (the source's name)
[4] = system: Toxoplasma gondii; test: Anti-tachyzoite activity against RFP-expressing Toxoplasma gondii RH Type 1 infected in NHDF cells assessed as inhibition of parasite proliferation measured after 96 hrs by fluorescence plate reader; format: functional; details: RH Type 1, NHDF, read-out: ED50 (the source's name)
[5] = system: Toxoplasma gondii; test: Anti-bradyzoite activity against Toxoplasma gondii ESG reporter stain infected in NHDF cells assessed as viable cells recovery causing host cell lysis at 0.625 uM measured after 15 days by optical microscopic analysis; format: functional, organism-based; details: time 15.0 day
[6] = system: Toxoplasma gondii; test: Anti-bradyzoite activity against Toxoplasma gondii ESG reporter strain infected in NHDF cells assessed as increase in BAG-positive vacuole number at 1.25 uM pretreated with PYR for 3 days followed by compound treatment and further incubated for 4 days; format: functional, organism-based; details: time 4.0 day
[7] = system: Toxoplasma gondii; test: (§1) Anti-tachyzoite activity against RFP-expressing Toxoplasma gondii RH Type 1 infected in NHDF cells assessed as plaque formation at 0.625 uM incubated for 96 hrs followed by removal of medium containing compounds and subsequent addition of fresh medium without compounds and measured after 8 days by crystal violet staining based optical microscopic analysis; format: functional, organism-based
[8] = system: Toxoplasma gondii; test: (§2) Anti-tachyzoite activity against RFP-expressing Toxoplasma gondii RH Type 1 infected in NHDF cells assessed as inhibition of plaque formation at 1.25 uM incubated for 96 hrs followed by removal of medium containing compounds and subsequent addition of fresh medium without compounds and measured after 8 days by crystal violet staining based optical microscopic analysis; format: functional, organism-based
[9] = Selectivity index, ratio of CC50 for cytotoxicity against NHDF cells to ED50 for Anti-tachyzoite activity against RFP-expressing Toxoplasma gondii RH Type 1 infected in NHDF cells; format: toxicity, cell-based; details: human; read-out: Selectivity Index
[10] = system: Toxoplasma gondii; test: Anti-bradyzoite activity against Toxoplasma gondii ESG reporter strain infected in NHDF cells assessed as cell lysis at 2 uM measured after 21 days; format: functional, organism-based; details: time 21.0 day
[11] = system: Toxoplasma gondii; test: as §2, with “destruction” for “inhibition”, “host cells” for “plaque formation”; format: functional, organism-based
[12] = system: Toxoplasma gondii; test: Induction of stage conversion in Toxoplasma gondii ESG reporter strain at 1 uM; format: functional, organism-based
[13] = system: Toxoplasma gondii; test: Induction of stage conversion in Toxoplasma gondii ESG reporter strain at 2 uM; format: functional, organism-based
[14] = system: Toxoplasma gondii; test: Anti-bradyzoite activity against Toxoplasma gondii ESG reporter stain infected in NHDF cells assessed as viable cells recovery causing host cell lysis at 2 uM measured after 15 days by optical microscopic analysis; format: functional, organism-based; details: time 15.0 day
[15] = system: Toxoplasma gondii; test: as §1, with “4” for “0.625”; format: functional, organism-based
[16] = system: Toxoplasma gondii; test: as §1, with “2” for “0.625”; format: functional, organism-based
[17] = system: Toxoplasma gondii; test: Anti-bradyzoite activity against Toxoplasma gondii ESG reporter stain infected in NHDF cells assessed as parasite proliferation at 4 uM measured after 30 days by optical microscopic analysis; format: functional, organism-based; details: time 30.0 day
[18] = system: Toxoplasma gondii; test: Anti-bradyzoite activity against Toxoplasma gondii ESG reporter strain infected in NHDF cells assessed as increase in BAG-positive vacuole number at 2 uM pretreated with PYR for 3 days followed by compound treatment and further incubated for 4 days; format: functional, organism-based; details: time 4.0 day
[19] = system: Toxoplasma gondii; test: Induction of stage conversion in Toxoplasma gondii ESG reporter strain at 4 uM; format: functional, organism-based
[20] = system: Toxoplasma gondii; test: Anti-bradyzoite activity against Toxoplasma gondii ESG reporter strain infected in NHDF cells assessed as induced cyst formation at 2 uM measured after 5 days under alkaline condition by TEM analysis; format: functional, organism-based; details: time 5.0 day
[21] = system: Toxoplasma gondii; test: as §1, with “destruction of host cells” for “plaque formation”, “1” for “0.625”; format: functional, organism-based
[22] = system: Toxoplasma gondii; test: Induction of cytoplasmic vacuolization in RFP-expressing Toxoplasma gondii RH Type 1 at 156 nM after 72 hrs by TEM analysis; format: functional, organism-based
[23] = system: Toxoplasma gondii; test: (§3) Anti-tachyzoite activity against RFP-expressing Toxoplasma gondii RH Type 1 infected in NHDF cells assessed as inhibition of plaque formation at 0.312 uM when host cells pretreated for 3 days followed by infection and removal of medium containing compounds and subsequent addition of fresh medium without compounds and measured after 7 days by crystal violet staining based optical microscopic analysis; format: functional, organism-based; details: time 3.0 day
[24] = system: Toxoplasma gondii; test: Anti-bradyzoite activity against Toxoplasma gondii ESG reporter stain infected in NHDF cells assessed as parasitic infection at 0.625 uM measured after 60 days by optical microscopic analysis; format: functional, organism-based; details: time 60.0 day
[25] = system: Toxoplasma gondii; test: Induction of nuclear fragmentation in RFP-expressing Toxoplasma gondii RH Type 1 at 156 nM after 72 hrs by TEM analysis; format: functional, organism-based; details: NHDF
[26] = system: Toxoplasma gondii; test: Induction of cell death in RFP-expressing Toxoplasma gondii RH Type 1 assessed as DNA fragmentation at 156 nM after 72 hrs by immunoblotting analysis; format: functional, organism-based
[27] = system: Toxoplasma gondii; test: as §2, with “0.312” for “1.25”; format: functional, organism-based
[28] = system: Toxoplasma gondii; test: Anti-bradyzoite activity against Toxoplasma gondii ESG reporter strain infected in NHDF cells assessed as increase in BAG-positive vacuole number at 0.625 uM pretreated with PYR for 3 days followed by compound treatment and further incubated for 4 days; format: functional, organism-based; details: time 4.0 day
[29] = system: Toxoplasma gondii; test: Anti-bradyzoite activity against Toxoplasma gondii ESG reporter strain infected in NHDF cells assessed as morphological alteration at 0.625 uM measured after 5 days under alkaline condition by TEM analysis; format: functional, organism-based; details: time 5.0 day
[30] = system: Toxoplasma gondii; test: Anti-bradyzoite activity against Toxoplasma gondii ESG reporter stain infected in NHDF cells assessed as parasite proliferation at 0.325 uM measured after 30 days by optical microscopic analysis; format: functional, organism-based; details: time 30.0 day
[31] = system: Toxoplasma gondii; test: as §1, with “0.156” for “0.625”; format: functional, organism-based
[32] = system: Toxoplasma gondii; test: Induction of mitochondria swelling in RFP-expressing Toxoplasma gondii RH Type 1 at 156 nM after 72 hrs by TEM analysis; format: functional, organism-based; details: NHDF
[33] = system: Toxoplasma gondii; test: Induction of vacuole formation in Toxoplasma gondii ESG reporter strain infected in NHDF cells assessed as increase in BAG positive vacuole number pretreated with PYR for 3 days followed by compound treatment and further incubated for 4 days; format: functional, organism-based; details: time 4.0 day
[34] = system: Toxoplasma gondii; test: Anti-bradyzoite activity against Toxoplasma gondii ESG reporter strain infected in NHDF cells assessed as induction of cyst formation measured after 5 days under alkaline condition by TEM analysis; format: functional, organism-based; details: time 5.0 day
[35] = system: Toxoplasma gondii; test: Anti-bradyzoite activity against Toxoplasma gondii ESG reporter strain infected in NHDF cells assessed as cell lysis measured after 21 days; format: functional, organism-based; details: time 21.0 day
[36] = system: Toxoplasma gondii; test: as §2, with “10” for “1.25”; format: functional, organism-based
[37] = system: Toxoplasma gondii; test: Anti-bradyzoite activity against Toxoplasma gondii ESG reporter stain infected in NHDF cells assessed as viable cells recovery causing host cell lysis at 1 uM measured after 15 days by optical microscopic analysis; format: functional, organism-based; details: time 15.0 day
[38] = system: Toxoplasma gondii; test: Anti-bradyzoite activity against Toxoplasma gondii ESG reporter stain infected in NHDF cells assessed as parasite proliferation at 10 uM measured after 30 days by optical microscopic analysis; format: functional, organism-based; details: time 30.0 day
[39] = system: Toxoplasma gondii; test: Induction of morphological changes in Toxoplasma gondii ESG reporter strain at 10 uM; format: functional, organism-based
[40] = system: Toxoplasma gondii; test: as §3, with “1.25” for “0.312”; format: functional, organism-based; details: time 3.0 day
[41] = system: Toxoplasma gondii; test: Anti-bradyzoite activity against Toxoplasma gondii ESG reporter strain infected in NHDF cells assessed as morphological alteration at 1.25 uM measured after 5 days under alkaline condition by TEM analysis; format: functional, organism-based; details: time 5.0 day
[42] = system: Toxoplasma gondii; test: as §1, with “assessed as inhibition of plaque formation” for “assessed as plaque formation”; format: functional, organism-based
[43] = system: Toxoplasma gondii; test: as §1, with “destruction of host cells” for “plaque formation”, “2.5” for “0.625”; format: functional, organism-based
[44] = system: Toxoplasma gondii; test: as §1, with “destruction of host cells” for “plaque formation”, “5” for “0.625”; format: functional, organism-based
[45] = system: Toxoplasma gondii; test: as §1, with “viable cells recovery causing host cell lysis” for “plaque formation”, “5” for “0.625”, “analysis relative to control” for “analysis”; format: functional

Row | SMILES | CC50 at 96 h [1] [nM] | Activity [2] | EC50 [3] [nM] | EC50 [4] [nM] | Activity [6] | Activity [8] | selectivity ratio [9] | Activity [33] | other results
1 | COc1ccc(Nc2ccc3ccc4cccnc4c3n2)cc1 | 18400 | inactive | 310 | 290 | Active | Active | 63 |  | Activity [5]: Active; Activity [7]: Active
2 | c1cnc2c(c1)ccc1cccnc12 [PHENANTHROLINE] | 70200 |  | 2010 | 2280 |  |  | 31 |  | Activity [10]: Active
3 | Fc1ccc(Nc2ccc3ccc4cccnc4c3n2)cc1 | 26900 | inactive | 250 | 310 | Active |  | 96 |  | Activity [7]: Active; Activity [11]: Active
4 | CCc1nc(N)nc(N)c1-c1ccc(Cl)cc1 |  |  |  |  |  |  |  |  | Activity [12]: Active; Activity [13]: Active; Activity [14]: Active; Activity [15]: Active; Activity [16]: Active; Activity [10]: Active; Activity [17]: Active; Activity [18]: Active; Activity [19]: Active; Activity [20]: Active; Activity [21]: Active
5 | c1ccc2c(Nc3ccc4ccc5cccnc5c4n3)cccc2c1 | 11400 |  | 240 | 150 |  |  | 114 | Active | Activity [22]: Active; Activity [23]: Active; Activity [24]: inactive; Activity [25]: Active; Activity [26]: Active; Activity [27]: Active; Activity [28]: Active; Activity [29]: Active; Activity [30]: Active; Activity [31]: Active; Activity [32]: Active; Activity [34]: Active
6 | c1ccc(Nc2ccc3ccc4cccnc4c3n2)cc1 | 34600 |  | 530 | 670 |  | Active | 73 |  | 
7 | O=C1C(O)=C([C@H]2CC[C@H](c3ccc(Cl)cc3)CC2)C(=O)c2ccccc21 |  |  |  |  |  |  |  |  | Activity [35]: Active; Activity [12]: Active; Activity [36]: Active; Activity [37]: Active; Activity [38]: Active; Activity [39]: Active; Activity [21]: Active
8 | Fc1cccc(Nc2ccc3ccc4cccnc4c3n2)c1 | 24900 | inactive | 270 | 330 | Active | Active | 75 | Active | Activity [40]: Active; Activity [41]: Active; Activity [42]: Active; Activity [34]: Active
9 | Clc1cccc(Nc2ccc3ccc4cccnc4c3n2)c1 | 24900 | inactive | 360 | 580 | Active | Active | 42 | Active | Activity [40]: Active; Activity [41]: Active; Activity [5]: Active; Activity [42]: Active; Activity [34]: Active
10 | COc1cccc(Nc2ccc3ccc4cccnc4c3n2)c1 | 37700 | inactive | 250 | 340 | Active | Active | 111 |  | Activity [40]: Active; Activity [7]: Active
11 | N#Cc1cccc(Nc2ccc3ccc4cccnc4c3n2)c1 | 30500 |  | 240 | 310 |  |  | 98 | Active | Activity [35]: Active; Activity [43]: Active; Activity [11]: Active; Activity [44]: Active
12 | N#Cc1ccc(Nc2ccc3ccc4cccnc4c3n2)cc1 | 31000 |  | 1060 | 1660 |  |  | 21 |  | Activity [35]: Active; Activity [45]: 100%
